According to patent publication US20160058712A1, “3-HYDROXYPTEROSTILBENE AND THERAPEUTIC APPLICATIONS THEREOF” (priority 2014, published 2016):

Tests used:
[1] = system: caspase 3 activity in COLO 205 cells; assay: Fluorogenic caspase induction assay; assay type: cell-based, human; conditions: COLO 205, after 24 hours of treatment
Protocol: The caspase 3, 8 and 9 induction activity in protein extractions of COLO 205 cells was determined by a fluorogenic assay (Promega's CaspACE Assay System, Madison, Wis.). Briefly, 50 μg of total protein, as determined by the BioRad protein assay kit (BioRad Laboratories), was incubated with 50 μM substrate Ac-Asp-Glu-Val-Asp-methylcoumaryl-7-amine (caspase3 specific substrate), Ac-Ile-Glu-Thr-Asp-AMC ([…]) (caspase 8 specific substrate), or Ac-Leu-Glu-His-Asp-AMC (Ac-LEHD-AMC) (caspase 9 specific substrate) at 30° C. for 1 h. The release of methylcoumaryl-7-amine was measured by excitation at 360 nm and emission at 460 nm using a fluorescence spectrophotometer (ECLIPSE, Varian, Palo Alto, Calif.).

COLO 205 cells = assay: Mitochondrial membrane potential by DiOC6 flow cytometry; assay type: cell-based, human; conditions: COLO 205, 50 μM, 15 min; shifted from 224
Protocol: For mitochondrial membrane potential and ROS production, COLO 205 cells were treated as described under Example III for 15 min, and then DiOC6 [3,3′-dihexyloxacarbocyanine iodide] (40 nM) or DCFHDA [2′,7′-dichlorodihydrofluorescein diacetate] (20 μM) was added to the medium for a further 30 min at 37° C. After washing with PBS, the fluorescence intensity was determined by FAC Scan cytometry. The DiOC6 fluorescence intensity shifted to the left from 224 to 117 and 75 in pterostilbene and 3-HPT induced apoptotic COLO 205 cells, respectively. […] The role of ROS in the induction of apoptosis is well recognized. […] The imbalance of ROS concentrations could play an important role as an early mediator in 3-HPT induced apoptosis.

COc1cc(/C=C/c2ccc(O)c(O)c2)cc(OC)c1 [3-hydroxypterostilbene, 3,4-dihydroxy-3′,5′-dimethoxy-trans-stilbene]
increase in caspase 3 activity [1]: approximately 2.4 fold
DiOC6 fluorescence intensity (mitochondrial membrane potential) (COLO 205 cells): 75
